US20210161788A1, “Anti-Blue Light Dermal Topical Composition and Applications Thereof” (Taiwan AC Scientific Inc., priority 2019, published 2021)

Columns and labels:
[1] = Penetration rates of UV, blue light and visual light and shading rate of blue light, UV/blue-light detector; assay type: physicochemical; conditions: for Penetration rate UV: 380-400 nm; for Penetration rate BL: 405-425 nm; for Penetration rate VL: 520-540 nm; for Shading rate of blue light: VL penetration minus BL penetration
Description: Solutions with different concentrations prepared by terephthalylidene dicamphor sulfonic acid are tested with a UV/blue-light detector (Actor-Mater Co., Ltd.) for penetration rates of ultraviolet (UV), blue light (BL) and visual light (VL). The shading rate of blue light is calculated by the formula as follows:
Shading rate of blue light (%)=penetration rate of visual light−penetration rate of blue light
where wavelength ranges of UV, blue light and visual light tested with a UV/blue-light detector (Actor-Mater Co., Ltd.) are 380-400 nm, 405-425 nm and 520-540 nm, respectively.
The 3% terephthalylidene dicamphor sulfonic acid solution (B) and the 3% rutoside solution (C) are prepared by ingredients as shown in formulas in Table 4. Referring to test modes in Embodiment 1 to Embodiment 3, the anti-blue light effects and the shading rates of blue light for solutions (B) and (C) are tested, respectively.
The synergistic effect of rutoside and terephthalylidene dicamphor sulfonic acid on anti-blue light is explored in this embodiment. Prepared by rutoside and terephthalylidene dicamphor sulfonic acid, the mixed solutions with different concentrations are tested for shading rates of blue light according to the test mode as shown in Embodiment 3.

Human Skin = test: Evaluation of the effect on human skin by the Janus facial analysis system; assay type: in vivo; conditions: 3% solution applied on skin
Description: Evaluation method: A subject who has applied the 3% terephthalylidene dicamphor sulfonic acid solution on skin surfaces for seven straight days is tested by the Janus facial analysis system for status change of their skin.

CC1(C)C2CCC1(CS(=O)(=O)O)C(=O)C2=Cc1ccc(C=C2C(=O)C3(CS(=O)(=O)O)CCC2C3(C)C)cc1 (stereo in doubt) [terephthalylidene dicamphor sulfonic acid]
Penetration rate UV ([1]; 0.5% (W/W) solution): 3.00 ± 0.00% | Penetration rate BL ([1]; 0.5% (W/W) solution): 87.33 ± 0.58% | Penetration rate VL ([1]; 0.5% (W/W) solution): 99.00 ± 0.00% | Shading rate of blue light ([1]; 0.5% (W/W) solution): 11.67 ± 0.58% | Penetration rate UV ([1]; 1% (W/W) solution): 1.67 ± 0.58% | Penetration rate BL ([1]; 1% (W/W) solution): 77.00 ± 1.00% | Penetration rate VL ([1]; 1% (W/W) solution): 98.67 ± 0.58% | Shading rate of blue light ([1]; 1% (W/W) solution): 21.67 ± 0.58% | Penetration rate UV ([1]; 3% (W/W) solution): 0.00 ± 0.00% | Penetration rate BL ([1]; 3% (W/W) solution): 50.00 ± 1.00% | Penetration rate VL ([1]; 3% (W/W) solution): 97.33 ± 0.58% | Shading rate of blue light ([1]; 3% (W/W) solution): 47.33 ± 0.58% | Penetration rate UV ([1]; 5% (W/W) solution): 0.00 ± 0.00% | Penetration rate BL ([1]; 5% (W/W) solution): 42.33 ± 0.58% | Penetration rate VL ([1]; 5% (W/W) solution): 97.33 ± 0.58% | Shading rate of blue light ([1]; 5% (W/W) solution): 55.00 ± 1.00% | Penetration rate UV ([1]; 10% (W/W) solution): 0.00 ± 0.00% | Penetration rate BL ([1]; 10% (W/W) solution): 26.33 ± 1.15% | Penetration rate VL ([1]; 10% (W/W) solution): 95.00 ± 1.00% | Shading rate of blue light ([1]; 10% (W/W) solution): 68.67 ± 0.58% | Penetration rate UV ([1]; 20% (W/W) solution): 0.00 ± 0.00% | Penetration rate BL ([1]; 20% (W/W) solution): 16.00 ± 1.00% | Penetration rate VL ([1]; 20% (W/W) solution): 93.00 ± 1.00% | Shading rate of blue light ([1]; 20% (W/W) solution): 77.00 ± 0.00% | Average shading rate of blue light ([1]; content of anti-blue light substances in a solution 1%): 22% | Average shading rate of blue light ([1]; content of anti-blue light substances in a solution 3%): 47% | Reduction of the total average of fine wrinkles (Human Skin; after 7 straight days vs before use): 7% | Count of melanin pigmentations at the forehead (Human Skin; after 7 straight days, before use 42): 25 | Count of melanin pigmentations at one side of the face (Human Skin; after 7 straight days, before use 49): 42 | Count of melanin pigmentations at cheeks (Human Skin; after 7 straight days, before use 56): 44 | Fine wrinkles under eyelids (Human Skin; after 7 straight days, before use 57): 54 | Total average fine wrinkles (Human Skin; after 7 straight days, before use 82): 75 | Crow's feet (Human Skin; after 7 straight days, before use 100): 88
